SMILES strings stand for the structures.

The molecule `COC(=O)c1c(C)nc2ccccc2c1NCc1ccc(Br)cc1` yielded a melting point of 89 °C. For `COC(=O)c1cccc(Nc2nc(-c3cccnc3)nc3ccccc23)c1` the value was 228 to 245 °C.

Consider `CCc1cc(C2=CCN(CCCC(O)c3ccc(F)cc3)CC2)[nH]n1` (stereo not given), for which the melting point was in the range of 140 to 142 °C. As for `CN(C(=O)C1CCCN(c2ccc([N+](=O)[O-])c(C=C3NC(=O)NC3=O)c2)C1)C1CCCCC1` (stereo not given), the melting point lay within 153 to 162 °C. Then `COc1ccc([C@H](Sc2cc(Oc3ccccc3)ccc2N)[C@@H](O)C(=O)O)cc1`, with 151 to 152 °C; and `O=C1NCCOC1C(O)c1ccccc1` (stereo not given), with 130 to 140 °C. For `CCCCCCCCCC(=O)NC(=O)OCc1nc(C(C)C)c(Sc2cc(Cl)cc(Cl)c2)n1Cc1ccncc1` the value was 84 to 86 °C; for `Cc1ccccc1-n1c(CSc2ncnc3[nH]cnc23)nc2cccc(Cl)c2c1=O`, 214 °C; for `CCOC(=O)c1nc2c(=O)[nH]c3cc(C(F)(F)F)ccc3n2c1CP(=O)(O)O`, above 250 °C. Then `c1cc2c3c(c1)nc(N1CCOCC1)n3CCC2`, with 93 to 94 °C; and `Cn1cncc1C(O)(c1ccc(Cl)cc1)c1ccc2c(c1)C(c1cccc(Cl)c1)SCc1nnnn1-2` (stereo not given), with 217 °C. `COc1ccc(NC(=O)c2ccc(Br)cc2)cc1N1CCN(C)CC1`: the melting point was in the range of 158 to 160 °C. On to `O=C(O)c1cc2c(c(C(=O)O)c1)NCCS2`, for which the melting point is above 300 °C. On to `COC(=O)c1ccc(-c2ccc(OC)c(OC)c2)cc1OC`, for which the melting point lay in the range of 96 to 97.5 °C.

Consider `CC(=O)NC1CCCCC1CCC(=O)O` (stereo not given), for which the melting point fell in the range of 116 to 121 °C. `Cc1ccncc1-c1cncc(OC2SCC(O)C(O)C2O)c1` (stereo not given) gave a melting point of 201 °C.

`O=C(C=P(c1ccccc1)(c1ccccc1)c1ccccc1)CCCCO` showed a melting point of 121 to 124 °C. For `c1cc2ncn(CCCCc3nnnn3C3CCCCC3)c2cn1` the value was 133 to 135 °C; for `CSc1ccc(OC(C)c2ccnc3ncnn23)cc1` (stereo not given), 84 to 86 °C; for `CC(C)Oc1ccccc1C=C(C=O)C(C=O)=Cc1ccccc1OC(C)C`, 109 to 110 °C. For `COC(=O)c1cccc(C)c1OC(=S)N(C)C` the value was 94 to 96 °C; for `CN(C)CCNCCn1nc2c3c(c(NCCNCCO)ccc31)C(=O)c1c(O)ccc(O)c1-2`, 148 to 153 °C. Then `CC(C)[C@H]1CC[C@H](C(=O)N[C@H](Cc2ccc(OCc3ccc(C(F)(F)F)cc3)cc2)C(=O)O)CC1`, with 171 to 172 °C; and `Cc1cccc2c1CCC(=NO)C2(O)C(F)(F)F` (stereo not given), with 154 to 156 °C. The molecule `OC1CSC(Oc2ccc(-c3cccnc3)cc2F)C(O)C1O` (stereo not given) showed a melting point of 207 °C.

Consider `COc1ccccc1-n1c(=O)[nH]c2c(OC)cccc21`, for which the melting point was 246 to 247 °C.

Turning to `NC(=O)CCCON1CCNC1=Nc1c(Cl)cccc1Cl`, the melting point lay within 140 to 141 °C.

`CC1=C(C(=O)c2ccccc2F)C(=O)C2C=CC=CC2C1=O` (stereo not given): the melting point is 157 to 158 °C. `CC(C)n1cc(-c2c(-c3ccccc3)nn3ccncc23)ccc1=O`: the melting point fell in the range of 196 to 197 °C. Then `COc1cc(OC)c2cnnc(Cl)c2c1`, with 167 °C. For `O=C(Nc1ccc2ccc(-c3ccc(F)cc3)nc2n1)c1ccc(C(F)(F)F)cc1` the value was 198 °C; for `Cn1nc(-c2ccc(C#N)cc2)cc(C(=O)N[C@H]2CC[C@H](C(=O)O)CC2)c1=O`, 283 to 286 °C; for `CS(=O)(=O)Nc1ccc(OC[C@@H]2CO2)cc1`, 106 to 108 °C. Then `CCCCCCCCCCCCCCCCCCOc1cc2ccccc2c(N=Nc2ccc(OC)cc2)c1O`, with 95 to 97 °C; and `CCCCCCNC(=O)[C@@H](NC(=O)[C@H](CC(C)C)NC(=O)OC(C)(C)C)C(C)C`, with 115 to 116 °C. The molecule `CC(C)c1cc(O)cc(C(C)C)c1NC(=O)CN1CCN(CCSc2nc3ccccc3[nH]2)CC1` displayed a melting point of 241 to 242 °C.

Regarding `Oc1ccc(-c2ncc3ncc(-c4cccc(O)c4)cc3n2)cc1`, the melting point lay in the range of 256 to 257 °C. `O=C(O)[C@H]1CCC(=O)[C@@H](n2nc(-c3c(-c4ccccc4)nn4ccccc34)ccc2=O)C1` (relative stereo) came in with a melting point of 155 to 165 °C.

As for `C1=C(CCc2ccco2)CCN(Cc2n[nH]c3c2CCc2ccccc2-3)C1`, the melting point was in the range of 205 to 208 °C. For `CC(SN1C(=O)CCC1=O)c1ccccc1` (stereo not given) the value was 121 to 125 °C. Then `CC(C)(CO)NC(=O)c1nn(-c2c(F)cc(F)cc2F)c2c1C1CCC2C1` (stereo not given), with 122 to 125 °C; and `CCCCC/C=C\C/C=C\C/C=C\C/C=C\CCCC(=O)N[C@@H](C)C(=O)N[C@H](CCC(=O)O)C(=O)O`, with 90 °C; and `COc1ccc2c(c1)c(CCNC(C)=O)cn2S(=O)(=O)c1ccccc1`, with 140 to 141 °C. For `O=C(O)CCCCCCCCC(=O)c1ccccc1O` the value was 85 to 87 °C. Molecule `CCCCn1c(=O)c(NC(=O)Nc2cc(Cc3cc[nH]n3)ccc2C(C)(C)C)c(-c2cccc(OCCCO)c2)c2cccnc21` gave a melting point of 116 to 119 °C. Molecule `O=C(O)Cc1c(C(=O)c2ccc(Cl)cn2)[nH]c2cc(Cl)ccc12` gave a melting point of 242 to 244 °C. Then `COc1ccc(OC)c2c1C[C@@H](O)[C@H](N1CCN(c3ccccc3Cl)CC1)C2` (relative stereo), with 237 to 239 °C; and `CC1CCc2[nH]c3ccc(Br)cc3c2C1` (stereo not given), with 108 to 110 °C. Then `COc1ccc(Cn2ccn(CC(=O)c3ccc(OC)c(OC4CCCC4)c3)c2=O)cc1`, with 106 °C; and `COc1cc(/C(C#N)=C/c2ccc(Cl)c([N+](=O)[O-])c2)cc(OC)c1OC`, with 198 to 199 °C. For `COC(=O)c1nc(-c2ccc(Cl)cc2)c(F)c(N)c1OC` the value was 93 to 94 °C. In turn, `CCOC(=O)c1cc2ccccc2[nH]c1=O` came in with a melting point of 160 to 163 °C. On to `Cc1noc(NC(=O)N2CCN(c3nccc(-c4cccc(F)c4F)n3)CC2)c1C`, for which the melting point lay in the range of 193 to 194 °C.

`C=Cc1cn([C@@H]2O[C@H](C)[C@@H](OC(C)=O)[C@H]2OC(C)=O)c(=O)nc1N`: the melting point was 198 to 199 °C. For `CC1(C)CCC(C)(C)c2cc(-c3cnn(-c4ccc(C(=O)O)cc4)c3)ccc21` the value was 229 to 232 °C. For `NC1=NS(=O)N=C1NCCCOc1cccc2c(N3CCOCC3)nccc12` (stereo not given) the value was 222 to 224 °C; for `CCCN(CCC)Cc1noc(-c2ncn3c2[C@@H]2CCCN2C(=O)c2c(Cl)cccc2-3)n1`, 155 to 158 °C.

With `CN(C)C1CCN(c2nc(NCc3ccccc3)c3ncnc(NCc4ccccc4)c3n2)CC1`, the melting point is 143 to 145 °C.

Regarding `O=C(Oc1ccccc1C(=O)Nc1cc(Cl)c(OC(=O)c2ccccc2)c(Cl)c1)c1ccccc1`, the melting point lay in the range of 157 to 160 °C. For `CN(C)c1cccc2c1C1=NCCN1c1c(-c3noc(C4CC4)n3)ncn1-2` the value was 148 to 150 °C. On to `CCn1nc(-c2sc(C(=O)NCc3ccccn3)nc2-c2ccccc2)ccc1=O`, for which the melting point lay in the range of 169 to 170 °C. For `CCOC(=O)c1cc(C)nn1C` the value was 150 to 154 °C; for `COC(=O)C(C)Oc1ccc(NC(=O)CO)cc1` (stereo not given), 111 to 113 °C; for `CCCCCCCCCCC(=O)Nc1cc(F)cc2c1OCCC21SC(=O)NC1=O` (stereo not given), 69 to 71 °C. The molecule `CCCCc1oc2ccccc2c1-c1ncc(-c2ccc3c(Br)c(OCc4ccc(C(=O)OC)cc4)ccc3c2)o1` gave a melting point of 143 to 145 °C. For `COc1ccc(S(=O)(=O)c2c(C(C)C)cn3cccc(C)c23)cc1` the value was 103 °C; for `COc1ccc(CCN(C)CCc2ccc(NC(=O)c3cccc4c(=O)c5ccccc5[nH]c34)cc2)cc1`, 179 °C; for `CCCCCCCCCCCCCCCCCCOc1ccc(C=Cc2ccc(S(=O)(=O)CCCO)cc2)cc1`, 137 °C.

`COc1ccc2[nH]c(C(=O)N3CC(CCl)c4c3cc(O)c3ncccc43)cc2c1` (stereo not given) showed a melting point of 224 to 227 °C. `COc1ccc(C2=NN(C3CCN(C(=O)CCSCCNC(=O)OC(C)(C)C)CC3)C(=O)[C@@H]3CC=CC[C@H]23)cc1OC` displayed a melting point of 132 to 134 °C.

On to `N#CC1c2ccccc2Sc2ccccc21`, for which the melting point fell in the range of 103 to 105 °C. Then `CCOc1ccc(S(C)(=O)=O)cc1C(=O)Nc1c(C(N)=O)nn(CCOC)c1CC`, with 190 to 192 °C. For `Cc1ccc2[nH]cc(C(=O)[C@H]3CCCN3)c2c1` the value was 194 to 196 °C; for `O=C(Nc1nccs1)c1nc(-c2cccc3ccccc23)[nH]c1-c1ccc(CO)cc1`, 226 to 228 °C.

Take `CSc1nc(-c2cc(C(C)(C)C)c(O)c(C(C)(C)C)c2)c[nH]1`: the melting point lay within 249 to 251 °C. Then `O=Cc1cccc(NC(=O)NC2N=C(c3ccccc3F)c3ccccc3N(CC(=O)N3CC4CCC(CC4)C3)C2=O)c1` (racemic), with 164 to 182 °C. For `Cn1nc(OC2c3cc(C#N)ccc3OC(C)(C)C2(C)O)ccc1=O` (stereo not given) the value was 197 to 199 °C; for `COc1cc(C(=O)N2CCC(CCN3CCC(Nc4nc5ccccc5n4Cc4ccccn4)CC3)(c3ccc(F)c(F)c3)C2)cc(OC)c1OC` (stereo not given), 101 to 107 °C; for `CN1C(=O)CN(c2cccc(C#N)c2)NC1=O`, 174 to 178 °C.

`O=C1N=c2cccc(OCCN3CCC(Cc4ccccc4)CC3)c2=NC1=O` returned a melting point of 244 to 245 °C. Then `CCOC(=O)N1C=CN(c2ccccc2)C1C#N` (stereo not given), with 109 to 111 °C. Then `COC(=O)C1CCCCc2c1ncn2C(c1ccccc1)(c1ccccc1)c1ccccc1` (stereo not given), with 161 to 163 °C; and `Cc1ccc(S(=O)(=O)N2[C@@H](CCc3ncnn3C)CC[C@H]2c2ccc(F)cc2)cc1` (racemic), with 145 °C. For `COc1ccc(NC(=O)c2ccc(C(C)(C)C#N)cc2)cc1` the value was 164 to 168 °C; for `COc1ccc2c(c1)CN(CCc1ccc([N+](=O)[O-])cc1)CC2`, 92 to 94 °C.

Broadly, the melting point is the temperature of the solid-liquid transition.

The values are drawn from a melting point compilation (Tetko et al.; mined from patent text by program, amines drawn as free bases though some values may be those of a salt).
